Assay results as given in patent US11571485B2, “Peptides and antibodies for detecting changes in alzheimer's disease brain and methods of use thereof” (Sanford Burnham Prebys Medical Discovery Institute, priority 2016, dated 2023).
Bridges are numbered along the chain shown (N, C = ends). FAM = fluorescein-amide / fluoresceinamine label

Assays:
[1] = tested on: hippocampus of hAPP-J20 AD and wild-type mice; experiment: In vivo CX7C T7 phage library screen, sequencing of phage recovered from hippocampus; set-up: species or system mouse; settings: for Frequency/%: hippocampus 30 min after i.v. phage library, high throughput sequencing of inserts; for Representation in sequenced phage pools, AD versus normal brain: 9-month AD mouse vs normal mouse hippocampus
Experimental: In vivo phage screening was conducted using a T7 phage library expressing random peptides with the composition of CXnC (C=cysteine; X=any amino acid; n=7). The mouse model used for this screening is the hAPP-J20 that expresses amyloid precursor protein (APP) with both the Swedish and Indiana mutations (Murrell et al., Science 254, 97-99. (1991); Mullan et al., Nat. Genet. 1, 345-347. (1992)). Peptides homing to the hippocampus of these mice was the focus because the hippocampal region is where the AB-related lesions and damage are most prevalent early on in the disease.
A CX7C phage library was intravenously injected into 9 month-old AD and wild-type (WT) littermate mice, and allowed to circulate for 30 min, after which mice were perfused with saline, brains were collected, and the hippocampal region was dissected and subjected to phage titration and high throughput sequencing of the phage inserts. A surprise result was that the number of phage recovered from the AD hippocampus samples was much higher than the number recovered from a similar screen on normal littermates of the AD mice (FIG. 1A). […] BBB leakage has also been reported in AD patients.
Parallel phage library screens were performed on a normal mouse and a 9-month old AD transgenic mouse (J20 hAPP tg mouse line, which expresses transgenic amyloid precursor protein with two disease-related mutations). The library was intravenously injected into anesthetized mice and the hippocampal area of the brain was collected 30 min after intravenous injection of the library, phage was isolated from the tissue samples and subjected to high throughput sequencing of the peptide-encoding inserts in the phage DNA. Table 1 list most abundantly represented peptide from the two kinds of brains, and all peptides with significant representation in the AD brain and absent or nearly absent in the normal brain are listed in Table 2. Two peptides, CASPRLSKC (SEQ ID NO: 3) and CESPLLSEC (SEQ ID NO: 11), from among the highest scoring ones were subjected to detailed studies as described below.
hAPP-J20 mice were intravenously injected with 1e10 pfu of a CX7C (wherein X is any amino acid) naïve phage library, in 100 μL of PBS. The library was allowed to circulate for 30 minutes, after which mice were anesthetized with 2.5% avertin and perfused with PBS intracardially. The brain was removed and the hippocampus was extracted and homogenized in LB-NP 40 (1%) and phage was processed as described (Teesalu et al., Methods Enzymol 503, 35-56 (2012)). The phages in the lysate were rescued by amplification in E. coli and peptide-encoding portion of the phage genome was sequenced using Ion Torrent high throughput sequencing.

AD hippocampus = experiment: Homing of intravenously injected individual peptide-displaying phages; format: in vivo, mouse; settings: intravenously injected phage displaying the peptide
Excerpt: FIG. 1B relates to phage titration showing that about 5 times more phage were recovered from the AD hippocampus than from the normal control. In the sequencing, phages displaying the peptides code named CASP (SEQ ID NO: 3; CASPRLSKC), CES (SEQ ID NO: 11, CESPLLSEC), and DAG (SEQ ID NO: 102, CDAGRKQKC) dominated. Hippocampus from age-matched normal wild-type mouse brain was used as a control.

[2] = tested on: hAPP-J20 mouse brain (hippocampus); settings: i.v., 30 min circulation, 9-month-old AD (hAPP-J20) vs normal/WT mice
Experimental: The synthetic peptides were labeled with FAM and 100 nmol and were intravenously injected to 9-month old AD mice through the tail vein. The peptides were allowed to circulate for 30 min, after which the mice were perfused with 20 ml of PBS, the brains were collected and snap-frozen in OCT for sectioning. The peptides were detected by anti-FAM staining (green), nuclei were stained with DAPI (blue), and anti-CD31 was used to visualize blood vessels.
For peptide homing, mice were intravenously injected with 50 nmole peptide dissolved in PBS, and allowed to circulate for 30 min. Mice were then perfused intracardially with saline and all major organs were isolated and fixed in 4% paraformaldehyde (PFA) at pH 7.4 overnight. The organs were then washed with PBS and placed in graded sucrose solutions overnight before optimal cutting temperature compound (OCT) embedding. Ten-micro-meter-thick sections were cut and analyzed by immunostaining.
Frozen sections were permeabilized using PBS- 0.2% Triton™ X-100 (PBST), blocking was carried out using blocking buffer (5% BSA, 1% goat serum, 1% donkey serum in PBST. Primary antibodies were incubated in diluted (1%) blocking buffer overnight at dilutions 1/100 or 1/200 at 4° C., washed with PBST and incubated with secondary antibodies diluted 1/200 or 1/500 in 1% diluted buffer for 1 hour at room temperature, subsequently washed with PBST, counterstained with DAPI 1 μg/mL in PBS for 5 minutes, washed with PBS, mounted using aqueous mounting media (Vector Biolabs), and imaged using a confocal microscope (Zeiss LSM-710).

recombinant human CTGF = biological target: T1, recombinant human CTGF (Homo sapiens, UniProt P29279); experiment: ELISA binding to recombinant CTGF; settings: non-labeled DAG 0.5 mM
T1 construct: purchased Affymetrix 14-8503-80
T1 sequence (P29279 253-349 limits assumed): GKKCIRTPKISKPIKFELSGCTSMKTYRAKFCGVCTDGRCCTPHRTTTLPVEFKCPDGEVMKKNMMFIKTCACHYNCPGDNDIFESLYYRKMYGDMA
Experimental: FIG. 10 is a graphical representation relating to identification of a receptor for DAG. DAG binds to recombinant CTGF. FAM-DAG was incubated on ELISA plate coated with recombinant human CTGF at two different peptide concentrations of the FAM peptide alone (light gray bars), or in the presence of non-labeled DAG (0.5 mM) (dark gray bars). […] DAG was also shown to colocalize with CTGF. FAM-DAG was intravenously injected in 9-month-old hAPP-J20 and WT mice, allowed to circulate for 30 minutes, after which mice were perfused, and the brains were fixed, sectioned and stained for FAM (green) and CTGF (red).
Human CTGF recombinant protein (Affymetrix Cat #14-8503-80) was incubated on Nunc low-binding plates at concentration of 10 μg/ml for overnight at 4° C. Excess protein in the plates was removed by washing with PBS-T (PBS with 0.005% Tween 20). Plates were blocked with 200 μl of 3% non-fat milk in PBS for 1 hour at room temperature and washed with PBS-T once. Biotin-labeled peptide (at different concentrations) in PBS was added to the plate for 2 hours at 37° C. For peptide inhibition, non-labeled DAG peptide (0.5 mM) was added 30 minutes prior to addition of labeled peptide. The plates were washed with 100 μl PBS-T for three times to remove excess peptide. The bound peptide was detected by incubating with 100 μl of Vectastain ABC™ reagent (Vector labs, Burlingame, Calif.) for 30 minutes. The plate was washed with 100 μl PBS-T three times. Next, 100 μl of o-phenylenediamine dihydrochloride (OPD) silver and gold substrate (Sigma-Aldrich) was added to the wells and incubated at room temperature until visible color was observed (˜30 min). Adding 50 μl of 1 M H2SO4 stopped the reaction and the plate was read at 495 nm (FlexStation™ 3 Reader, Molecular Devices, Sunnyvale, Calif., USA).

[3] = Alzheimer's mouse (9-month old J20 hAPP tg)

Substance	Frequency/% ([1]; Wild-type mouse) [%]	Frequency/% [1, 3] [%]	other results
CADDGC [SEQ ID NO: 94]	1.244	–	–
CARVKK [SEQ ID NO: 91]	1.67	–	–
CASPRLSKC [SEQ ID NO: 3]	–	0.7226	Phage accumulation in normal brain (AD hippocampus): no accumulation in normal brain; Phage homing to AD hippocampus (AD hippocampus): home to AD hippocampus with high specificity; Homing of FAM-labeled peptide to hippocampus [2]: homed to the dentate gyms of AD brain but not normal brain; Representation in sequenced phage pools, AD versus normal brain [1]: dominated
CATPRDKRTC [SEQ ID NO: 87]	2.373	–	–
CELSQ [SEQ ID NO: 97]	1.089	–	–
CEQVRQKRC [SEQ ID NO: 4]	–	0.3956	–
CESPLLSEC [SEQ ID NO: 11]	–	0.316	Phage accumulation in normal brain (AD hippocampus): no accumulation in normal brain; Phage homing to AD hippocampus (AD hippocampus): home to AD hippocampus with high specificity; Homing of FAM-labeled peptide to hippocampus [2]: homed to the dentate gyms of AD brain but not normal brain; Representation in sequenced phage pools, AD versus normal brain [1]: dominated
CKVRKSEGC [SEQ ID NO: 85]	3.559	–	–
CLSLD [SEQ ID NO: 88]	2.286	–	–
CLTDNEETC [SEQ ID NO: 7]	–	0.3341	–
CNSKETSRC [SEQ ID NO: 5]	–	0.3885	–
CRKQGEAKC [reference compound]	–	–	Homing of FAM-labeled peptide to hippocampus [2]: essentially no homing to the hippocampus of hAPP-J20 mice
CRKQPTNVC [SEQ ID NO: 92]	1.495	–	–
CRTPLNPRC [SEQ ID NO: 95]	1.171	–	–
CSDRRLIDC [SEQ ID NO: 90]	1.737	–	–
CSGDMETKC [SEQ ID NO: 89]	1.846	–	–
CSGKAQRGC [SEQ ID NO: 100]	–	0.3349	–
CSKTTE [SEQ ID NO: 2]	–	0.8549	–
CSPE [SEQ ID NO: 6]	–	0.3766	–
CSRTSKQAC [SEQ ID NO: 98]	1.022	–	–
CSTNA [SEQ ID NO: 93]	1.426	–	–
CTKTAK [SEQ ID NO: 10]	–	0.3191	–
CTREGNETC [SEQ ID NO: 96]	1.098	–	–
CTVNGKRSC [SEQ ID NO: 99]	0.9707	–	–
CVPKGKLVC [SEQ ID NO: 84]	4.678	–	–
CVPKGKLVLLSL [SEQ ID NO: 86]	2.377	–	–
FAM-CASPRLSKC: fluorescein-amide (FAM)-labeled CASPRLSKC peptide ({FAM}-CASPRLSKC-NH2; cysteine pairing not given here)	–	–	Homing of FAM-labeled peptide to hippocampus [2]: homed to AD, but not normal, hippocampus
FAM-CESPLLSEC: fluorescein-amide (FAM)-labeled CESPLLSEC peptide ({FAM}-CESPLLSEC-NH2; cysteine pairing not given here)	–	–	Homing of FAM-labeled peptide to hippocampus [2]: homed to AD, but not normal, hippocampus
FAM-DAG: Fluoresceinamine (FAM)-labeled synthetic DAG peptide ({FAM}-CDAGRKQKC-NH2; disulfide 1-9 (inferred); not fully specified)	–	–	Homing of FAM-labeled peptide to hippocampus [2]: specifically homed AD hippocampus; Inhibition of CTGF binding by unlabeled DAG (recombinant human CTGF): Non-labeled DAG inhibited the binding of FAM-DAG
SSVDKL [SEQ ID NO: 9]	–	0.3223	–
